In patent publication US20240317756A1, “INHIBITORS OF BRUTON'S TYROSINE KINASE” (Pharmacyclics LLC, priority 2006, published 2024):
pIC50: −log10 of the molar value.

Assays:
EGFR = EGFR (Homo sapiens (Human), UniProt P00533); test: in vitro HotSpot kinase assay, EGFR; assay type: biochemical; details: Table 2, 1 uM ATP, one hour incubation with inhibitor
BTK = BTK (Homo sapiens (Human), UniProt Q06187); test: in vitro HotSpot kinase assay, BTK; assay type: biochemical; details: Table 2, 1 uM ATP, one hour incubation with inhibitor
BTK, sequence (Q06187 whole entry): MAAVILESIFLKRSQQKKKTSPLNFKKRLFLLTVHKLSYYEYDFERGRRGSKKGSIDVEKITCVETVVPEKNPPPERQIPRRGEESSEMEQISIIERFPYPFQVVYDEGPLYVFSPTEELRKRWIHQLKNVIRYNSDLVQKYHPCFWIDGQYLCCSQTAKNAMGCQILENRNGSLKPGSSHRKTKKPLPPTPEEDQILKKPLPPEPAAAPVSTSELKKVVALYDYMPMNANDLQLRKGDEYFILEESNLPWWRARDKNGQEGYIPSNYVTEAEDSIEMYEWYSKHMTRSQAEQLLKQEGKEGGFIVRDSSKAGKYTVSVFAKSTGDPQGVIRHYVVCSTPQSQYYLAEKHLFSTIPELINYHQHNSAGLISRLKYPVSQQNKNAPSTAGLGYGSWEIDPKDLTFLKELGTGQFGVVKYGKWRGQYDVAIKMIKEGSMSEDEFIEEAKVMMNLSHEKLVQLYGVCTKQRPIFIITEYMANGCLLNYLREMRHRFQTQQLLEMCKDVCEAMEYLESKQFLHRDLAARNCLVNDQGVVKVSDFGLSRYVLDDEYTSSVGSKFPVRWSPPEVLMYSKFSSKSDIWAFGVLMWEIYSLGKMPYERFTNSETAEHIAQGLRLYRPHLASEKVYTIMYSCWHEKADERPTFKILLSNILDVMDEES

[1] = plasma concentrations after oral dosing of rats; assay type: in vivo; details: single oral dose 8 mg/kg each in combination
Description: Blood samples were collected at 0.0833 (5 minutes), 0.333 (20 minutes), 1, 3, 6, 9, and 24 hours post-dosing from orally dosed rats.
Male jugular vein cannulated rats were administered a single dose of all test compounds at 8 mg/kg each, in combination by oral gavage. Dose volumes were adjusted based on body weight data collected immediately prior to dosing. Blood samples were collected at 0.0833 (5 minutes), 0.333 (20 minutes), 1, 3, 6, 9, and 24 hours post-dosing from orally dosed rats. The samples were collected into plasma separator Microtainer tubes with anticoagulant (lithium heparin). Plasma samples were prepared by centrifugation (5 min at 5000×g), and at least 100 μL were transferred to storage tubes and stored frozen at −80° C. Plasma samples were thawed and 75 uL aliquots were transferred to centrifuge tubes to which 10 μL aliquots of internal standard solution (1 μg/mL) were added. The samples were not diluted with blank plasma prior to further processing. Soluble proteins were precipitated by the addition of 200 μL of acetonitrile, followed by centrifugation (20 min at 16,000×g). The samples were evaporated to dryness and reconstituted in 200 μL of water containing 0.2% formic acid and 10% methanol. All samples were loaded onto an autosampler maintained at 6° C. and evaluated for concentrations of test compounds using LC-MS/MS.

ITK = ITK (Homo sapiens (Human), UniProt Q08881); test: in vitro HotSpot kinase assay, ITK; assay type: biochemical; details: Table 2, 1 uM ATP, one hour incubation with inhibitor
ITK, sequence (Q08881 whole entry, species assumed): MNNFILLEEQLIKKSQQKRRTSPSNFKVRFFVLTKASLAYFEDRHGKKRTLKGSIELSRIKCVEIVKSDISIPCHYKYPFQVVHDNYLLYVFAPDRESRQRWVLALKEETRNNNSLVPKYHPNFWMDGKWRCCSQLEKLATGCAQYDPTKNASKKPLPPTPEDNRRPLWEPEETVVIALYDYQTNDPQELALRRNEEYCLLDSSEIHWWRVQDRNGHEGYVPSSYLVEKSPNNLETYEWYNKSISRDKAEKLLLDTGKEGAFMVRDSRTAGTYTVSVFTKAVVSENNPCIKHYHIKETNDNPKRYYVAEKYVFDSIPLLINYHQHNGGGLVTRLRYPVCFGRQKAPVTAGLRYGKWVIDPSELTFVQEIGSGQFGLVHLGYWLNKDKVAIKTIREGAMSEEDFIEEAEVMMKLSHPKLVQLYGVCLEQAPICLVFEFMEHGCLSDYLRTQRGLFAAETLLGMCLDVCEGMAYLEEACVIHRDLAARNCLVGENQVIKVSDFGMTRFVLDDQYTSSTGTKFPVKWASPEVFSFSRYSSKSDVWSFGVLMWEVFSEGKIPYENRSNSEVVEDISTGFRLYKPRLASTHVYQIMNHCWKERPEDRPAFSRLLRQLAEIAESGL

[2] = glutathione binding assay; details: 5 mM glutathione, 10 μM Btk inhibitor, room temperature, HPLC
Description: A calculated value (e.g (1/Btk IC50)/Glutathione conjugation rate) as shown in the Table 2) is used to compare compounds for their ratio between potency at inhibiting their target and their non-specific binding to other SH groups, such as those in glutathione. […] Calculated ratios such as these are used to quantitatively compare different compounds and select compounds for further study.
For the glutathione binding assays, 5 mM glutathione, 10 μM Btk inhibitor in DMSO (10 μL) and 6 equivalents of N′N′ Diisopropyl ethyl amine were combined in 1 mL potassium phosphate buffer. The mixture was incubated for 0, 15, 60 minutes at room temperature and the reaction was stopped with 10 equivalents of formic acid. 50 μL of each reaction mixture was injected on HPLC (Mobil Phase A: 0.2% formic acid in water, Mobile Phase B: 0.2% formic acid in acetonitrile, HPLC Column: Metasil Basic 3μ, 150×4.6 mm, 10% B, Gradient: 10% to 90% B, Detection: UV/Vis […]). Rate of reaction was reported as nmole GSH conjugate conversion per minute from the normalized ratio for area under the curve from HPLC chromatograms for both GSH conjugate and the parent.

JAK3 = JAK3 (Homo sapiens (Human), UniProt P52333); test: in vitro HotSpot kinase assay, JAK3; assay type: biochemical; details: Table 2, 1 uM ATP, one hour incubation with inhibitor
JAK3, sequence (P52333 whole entry, species assumed): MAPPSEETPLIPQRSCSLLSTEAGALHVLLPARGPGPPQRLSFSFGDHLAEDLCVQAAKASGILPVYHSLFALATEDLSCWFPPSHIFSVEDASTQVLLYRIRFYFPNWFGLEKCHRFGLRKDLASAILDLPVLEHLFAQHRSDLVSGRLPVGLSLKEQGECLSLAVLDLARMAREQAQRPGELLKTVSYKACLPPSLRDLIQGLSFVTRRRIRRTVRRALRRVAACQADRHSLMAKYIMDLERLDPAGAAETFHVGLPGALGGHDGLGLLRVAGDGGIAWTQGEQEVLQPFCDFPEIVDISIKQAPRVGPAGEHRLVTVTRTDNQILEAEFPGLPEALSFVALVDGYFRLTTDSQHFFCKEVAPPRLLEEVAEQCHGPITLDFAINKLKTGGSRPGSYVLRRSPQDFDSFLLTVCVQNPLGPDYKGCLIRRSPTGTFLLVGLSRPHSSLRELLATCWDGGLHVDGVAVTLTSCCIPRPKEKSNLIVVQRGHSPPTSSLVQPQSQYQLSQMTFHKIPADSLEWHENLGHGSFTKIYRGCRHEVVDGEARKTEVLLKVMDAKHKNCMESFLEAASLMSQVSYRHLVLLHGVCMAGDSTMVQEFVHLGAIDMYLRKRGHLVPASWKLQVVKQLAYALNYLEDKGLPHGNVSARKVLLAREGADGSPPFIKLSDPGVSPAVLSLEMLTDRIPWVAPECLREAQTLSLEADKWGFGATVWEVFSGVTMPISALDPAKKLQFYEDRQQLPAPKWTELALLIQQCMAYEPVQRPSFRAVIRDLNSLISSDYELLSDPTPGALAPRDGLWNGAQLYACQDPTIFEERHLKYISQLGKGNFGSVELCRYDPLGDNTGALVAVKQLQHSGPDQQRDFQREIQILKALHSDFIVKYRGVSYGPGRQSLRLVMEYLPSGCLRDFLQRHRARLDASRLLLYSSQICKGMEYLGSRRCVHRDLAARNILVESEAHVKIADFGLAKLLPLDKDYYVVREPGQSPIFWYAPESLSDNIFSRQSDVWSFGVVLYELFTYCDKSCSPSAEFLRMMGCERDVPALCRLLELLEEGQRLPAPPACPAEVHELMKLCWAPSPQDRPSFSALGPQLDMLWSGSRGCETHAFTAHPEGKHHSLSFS

lymphoma cell line DOHH2 = test: DOHH2 cell proliferation assay (Alamar Blue); assay type: cell-based
Description: After 72 hours, cell number was measured using Alamar Blue using manufacturer's protocol. A dilution series of untreated cells was run in parallel to verify that the Alamar Blue assay reliably reflected cell number and that growth conditions were not limiting. […] GI50 values were confirmed in two or more separate experiments for each cell line.
Analogs are generated that are Btk inhibitors and that are cytotoxic to the lymphoma cell line DOHH2. For the DOHH2 cell proliferation assay, cells were seeded in 96-well plates in standard growth media (RPMI+10% fetal calf serum) and compounds were added in a 9-point dilution series ranging from 10 uM to 0.04 uM with DMSO at 0.1% final concentration in all wells. After 72 hours, cell number was measured using Alamar Blue using manufacturer's protocol. A dilution series of untreated cells was run in parallel to verify that the Alamar Blue assay reliably reflected cell number and that growth conditions were not limiting.

LCK = LCK (Homo sapiens (Human), UniProt P06239); test: in vitro HotSpot kinase assay, LCK; assay type: biochemical; details: Table 2, 1 uM ATP, one hour incubation with inhibitor
LCK, sequence (P06239 whole entry, species assumed): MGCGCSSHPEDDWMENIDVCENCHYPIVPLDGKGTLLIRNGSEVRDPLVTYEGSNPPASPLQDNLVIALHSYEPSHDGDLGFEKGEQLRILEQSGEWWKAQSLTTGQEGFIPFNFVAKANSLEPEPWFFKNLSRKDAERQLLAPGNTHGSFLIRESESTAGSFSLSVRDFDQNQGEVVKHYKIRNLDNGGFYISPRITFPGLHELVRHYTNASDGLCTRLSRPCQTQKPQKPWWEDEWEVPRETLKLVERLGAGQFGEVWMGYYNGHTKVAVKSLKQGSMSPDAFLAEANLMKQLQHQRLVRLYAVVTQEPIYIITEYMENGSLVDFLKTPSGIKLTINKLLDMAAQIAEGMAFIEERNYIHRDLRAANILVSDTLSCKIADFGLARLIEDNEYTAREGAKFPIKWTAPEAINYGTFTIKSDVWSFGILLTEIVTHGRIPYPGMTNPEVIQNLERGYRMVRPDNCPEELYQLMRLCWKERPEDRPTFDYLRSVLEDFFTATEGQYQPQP

[3] = test system: Tec family kinases, including Btk, and Src family kinases; test: in vitro profiling against a panel of greater than 100 kinases; assay type: biochemical
Source text: By way of example only and in some embodiments, the observed potency, selectivity, and cell permeability of compounds such as Compound 2 are appropriate to incorporate these molecules into a Kinase-targeted, activity based probe that allows direct visualization of Kinase activity in intact cells. […] Without limiting the scope of the compositions and methods described herein, it is postulated that the structural basis for the selectivity is covalent modification of a non-catalytic cysteine residue (Cys 481 in Btk) that is conserved in the ATP binding pocket of the Tec family and several other kinases.

YES = YES (Homo sapiens (Human), UniProt P07947); test: in vitro HotSpot kinase assay, YES; assay type: biochemical; details: purified enzymes, 33P-ATP, 1 uM ATP
YES, sequence (P07947 whole entry, species assumed): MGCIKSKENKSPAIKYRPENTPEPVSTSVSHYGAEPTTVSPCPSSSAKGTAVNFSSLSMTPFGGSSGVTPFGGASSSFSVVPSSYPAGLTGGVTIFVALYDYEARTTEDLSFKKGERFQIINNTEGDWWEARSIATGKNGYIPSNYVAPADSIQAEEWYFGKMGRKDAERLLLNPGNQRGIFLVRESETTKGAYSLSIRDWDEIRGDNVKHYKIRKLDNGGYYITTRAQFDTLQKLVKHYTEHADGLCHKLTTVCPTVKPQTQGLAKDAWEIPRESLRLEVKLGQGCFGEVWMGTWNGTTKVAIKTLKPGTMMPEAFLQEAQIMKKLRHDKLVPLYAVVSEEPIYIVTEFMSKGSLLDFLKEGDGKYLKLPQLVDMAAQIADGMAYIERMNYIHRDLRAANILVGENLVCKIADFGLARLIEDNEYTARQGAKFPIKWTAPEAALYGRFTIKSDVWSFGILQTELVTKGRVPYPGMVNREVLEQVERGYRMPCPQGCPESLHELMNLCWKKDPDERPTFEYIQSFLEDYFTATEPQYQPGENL

BLK = BLK (Homo sapiens (Human), UniProt P51451); test: in vitro HotSpot kinase assay, BLK; assay type: biochemical; details: purified enzymes, 33P-ATP, 1 uM ATP
Lyn = Lyn (Homo sapiens (Human), UniProt P07948); test: in vitro HotSpot kinase assay, Lyn; assay type: biochemical; details: purified enzymes, 33P-ATP, 1 uM ATP
Brk = Brk (Homo sapiens (Human), UniProt Q13882); test: in vitro HotSpot kinase assay, Brk; assay type: biochemical; details: purified enzymes, 33P-ATP, 1 uM ATP
FGR = FGR (Homo sapiens (Human), UniProt P09769); test: in vitro HotSpot kinase assay, FGR; assay type: biochemical; details: purified enzymes, 33P-ATP, 1 uM ATP
HER2 = HER2 (Homo sapiens (Human), UniProt P04626); test: in vitro HotSpot kinase assay, HER2; assay type: biochemical; details: purified enzymes, 33P-ATP, 1 uM ATP
C-src = C-src (Homo sapiens (Human), UniProt P12931); test: in vitro HotSpot kinase assay, C-src; assay type: biochemical; details: purified enzymes, 33P-ATP, 1 uM ATP
Source text: (§1) Table 1 is a table showing the degree of inhibition of a panel of kinases for two example compounds. […] Thus, subtle modifications in the linker moiety and the Michael acceptor moiety are important for the design of selective ACK inhibitors.

Fyn = Fyn (Homo sapiens (Human), UniProt P06241); test: in vitro HotSpot kinase assay, Fyn; assay type: biochemical; details: purified enzymes, 33P-ATP, 1 uM ATP
ABL = ABL (Homo sapiens (Human), UniProt P00519); test: in vitro HotSpot kinase assay, ABL; assay type: biochemical; details: purified enzymes, 33P-ATP, 1 uM ATP
[4] = test system: collagen-induced arthritis; test: collagen-induced arthritis in the mouse; assay type: in vivo, Male DBA/lOlaHsd mice; details: 12.5 mg/kg or 50 mg/kg each day of an 11-day period
Description: […]. […] Dexamethasone was included as a positive control. Paw inflammation was scored from 0-5 and averaged across all paws from all animals for each group in the study.
. After paw inflammation was established, animals were randomized and Compound lor vehicle was dosed orally once per day starting at day 1. Paw inflammation was scored from 0-5 and averaged across all paws from all animals for each group in the study. […] Dexamethasone was included as a positive control.

HER4 = HER4 (Homo sapiens (Human), UniProt Q15303); test: in vitro HotSpot kinase assay, HER4; assay type: biochemical; details: purified enzymes, 33P-ATP, 1 uM ATP
Source text: as §1

TEC = TEC (Homo sapiens (Human), UniProt P42680); test: in vitro HotSpot kinase assay, TEC; assay type: biochemical; details: purified enzymes, 33P-ATP, 1 uM ATP
CSK = CSK (Homo sapiens (Human), UniProt P41240); test: in vitro HotSpot kinase assay, CSK; assay type: biochemical; details: purified enzymes, 33P-ATP, 1 uM ATP
FER = FER (Homo sapiens (Human), UniProt P16591); test: in vitro HotSpot kinase assay, FER; assay type: biochemical; details: purified enzymes, 33P-ATP, 1 uM ATP
SYK = SYK (Homo sapiens (Human), UniProt P43405); test: in vitro HotSpot kinase assay, SYK; assay type: biochemical; details: purified enzymes, 33P-ATP, 1 uM ATP
Source text: as §1

[5] = test system: lymphoma cell line WSU-DLCL2; test: BCR cross-linking by anti-IgG in WSU-DLCL2; assay type: cell-based; details: WSU-DLCL2, anti-IgG 30 ug/ml
Egr-1 = test: expression of ERK transcriptional target Egr-1; assay type: cell-based; details: 1 uM
[6] = test system: pERK and BCR pathway phosphorylation in DOHH2 cells; test: BCR signal transduction pathway phosphorylation, DOHH2; assay type: cell-based; details: unstimulated DOHH2 cells; read-out: IC50 for decrease of pERK levels
Source text: To identify biomarkers that correlate with response to Compound 1, phosphorylation events in the BCR signal transduction pathway were investigated.
However, when we examined basal phosphorylation levels, we found higher basal phosphorylation in DOHH2 compared to Ramos, with phospho-ERK in particular indicating higher levels of basal or tonic signaling in DOHH2.

EGFR, sequence (P00533 25-1210, species assumed): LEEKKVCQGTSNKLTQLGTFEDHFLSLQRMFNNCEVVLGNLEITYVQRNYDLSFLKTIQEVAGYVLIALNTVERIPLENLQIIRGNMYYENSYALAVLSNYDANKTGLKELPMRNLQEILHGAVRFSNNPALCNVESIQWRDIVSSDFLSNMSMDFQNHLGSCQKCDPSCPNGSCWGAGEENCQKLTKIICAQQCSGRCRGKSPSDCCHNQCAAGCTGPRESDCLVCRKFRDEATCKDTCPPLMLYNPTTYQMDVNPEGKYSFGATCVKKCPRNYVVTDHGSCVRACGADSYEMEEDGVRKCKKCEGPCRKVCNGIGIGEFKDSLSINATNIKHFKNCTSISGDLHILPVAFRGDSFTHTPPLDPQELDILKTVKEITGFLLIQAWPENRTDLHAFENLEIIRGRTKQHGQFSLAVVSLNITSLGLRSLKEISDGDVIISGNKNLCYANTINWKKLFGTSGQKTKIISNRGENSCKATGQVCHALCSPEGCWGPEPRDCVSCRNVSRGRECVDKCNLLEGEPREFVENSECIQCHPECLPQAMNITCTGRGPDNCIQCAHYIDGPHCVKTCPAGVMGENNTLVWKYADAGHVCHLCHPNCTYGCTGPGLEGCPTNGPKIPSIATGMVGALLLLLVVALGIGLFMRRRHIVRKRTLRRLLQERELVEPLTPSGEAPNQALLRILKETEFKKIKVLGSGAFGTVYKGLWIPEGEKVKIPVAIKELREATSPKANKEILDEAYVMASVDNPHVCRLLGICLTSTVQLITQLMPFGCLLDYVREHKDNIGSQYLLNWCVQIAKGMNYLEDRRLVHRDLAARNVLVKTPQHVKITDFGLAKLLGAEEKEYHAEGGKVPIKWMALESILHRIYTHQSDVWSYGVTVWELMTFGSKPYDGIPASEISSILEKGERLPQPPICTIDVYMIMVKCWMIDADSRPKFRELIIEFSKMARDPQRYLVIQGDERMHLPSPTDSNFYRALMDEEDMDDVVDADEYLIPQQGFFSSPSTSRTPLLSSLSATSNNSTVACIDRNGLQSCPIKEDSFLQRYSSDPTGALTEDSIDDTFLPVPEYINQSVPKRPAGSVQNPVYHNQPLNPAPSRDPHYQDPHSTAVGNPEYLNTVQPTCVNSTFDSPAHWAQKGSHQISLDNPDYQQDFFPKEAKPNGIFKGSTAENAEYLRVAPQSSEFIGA

CN(C)C/C=C/C(=O)N[C@H]1CC[C@@H](n2nc(-c3ccc(Oc4ccccc4)cc3)c3c(N)ncnc32)CC1 [Compound 8, (E)-N-((1s,4s)-4-(4-amino-3-(4-phenoxyphenyl)-1H-pyrazolo[3,4-d]pyrimidin-1-yl)cyclohexyl)-4-(dimethylamino)but-2-enamide]
pIC50 (EGFR): 7.08 | pIC50 (BTK): 8.85 | in vivo half-life [1]: significantly longer in vivo half-life

CN(C)C/C=C/C(=O)N1CCC(n2nc(-c3ccc(Oc4ccccc4)cc3)c3c(N)ncnc32)CC1 [Compound 7, (E)-1-(4-(4-amino-3-(4-phenoxyphenyl)-1H-pyrazolo[3,4-d]pyrimidin-1-yl)piperidin-1-yl)-4-(dimethylamino)but-2-en-1-one]
pIC50 (EGFR): 6.57 | pIC50 (ITK): 5.21 | pIC50 (BTK): 8.20 | Glutathione Conj Rate [2]: 0.01 nmol/min | pIC50 (JAK3): < 5.00 | GI50 (lymphoma cell line DOHH2; Homo sapiens, DOHH-2, 72 hours): 0.317 µM | pIC50 (LCK): 8.59 | in vivo half-life [1]: significantly longer in vivo half-life

CN(C)C/C=C/C(=O)N1CCC[C@@H](n2nc(-c3ccc(Oc4ccccc4)cc3)c3c(N)ncnc32)C1 [Compound 2]
pIC50 (EGFR): 7.31 | pIC50 (BTK): 8.96 | potency and selectivity in kinase panel [3]: highly potent and selective inhibitor | GI50 (lymphoma cell line DOHH2; 72 hours): 0.32 µM

CN(C)C/C=C/C(=O)N1CCC[C@H]1Cn1nc(-c2ccc(Oc3ccccc3)cc2)c2c(N)ncnc21 [Compound 12, (E)-1-((S)-2-((4-amino-3-(4-phenoxyphenyl)-1H-pyrazolo[3,4-d]pyrimidin-1-yl)methyl)pyrolidin-1-yl)-4-(dimethylamino)but-2-en-1-one]
pIC50 (EGFR): 6.16 | pIC50 (ITK): 4.84 | pIC50 (BTK): 8.88 | Glutathione Conj Rate [2]: 0.004361 nmol/min | pIC50 (JAK3): < 5.00 | GI50 (lymphoma cell line DOHH2; 72 hours): > 10 µM | pIC50 (LCK): 8.22 | in vivo half-life [1]: short half-life in vivo

CC#CC(=O)N1CCC[C@@H](n2nc(-c3ccc(Oc4ccccc4)cc3)c3c(N)ncnc32)C1 [Compound 17, 1-((R)-3-(4-amino-3-(4-phenoxyphenyl)-1H-pyrazolo[3,4-d]pyrimidin-1-yl)piperidin-1-yl)but-2-yn-1-one]
pIC50 (EGFR): 6.36 | pIC50 (ITK): 5.63 | pIC50 (BTK): 8.70 | Glutathione Conj Rate [2]: 0.0243 nmol/min | pIC50 (JAK3): < 5.00 | GI50 (lymphoma cell line DOHH2; Homo sapiens, DOHH-2, 72 hours): 0.21 µM | pIC50 (LCK): 8.68

CC#CC(=O)N[C@H]1CC[C@@H](n2nc(-c3ccc(Oc4ccccc4)cc3)c3c(N)ncnc32)CC1 [Compound 22, N-((1s,4s)-4-(4-amino-3-(4-phenoxyphenyl)-1H-pyrazolo[3,4-d]pyrimidin-1-yl)cyclohexyl)but-2-ynamide]
pIC50 (EGFR): 6.81 | pIC50 (ITK): 5.43 | pIC50 (BTK): 8.80 | Glutathione Conj Rate [2]: 0.014 nmol/min | pIC50 (JAK3): < 5.00 | GI50 (lymphoma cell line DOHH2; 72 hours): < 0.04 µM | pIC50 (LCK): 7.66

C=CC(=O)N[C@H]1CC[C@@H](n2nc(-c3ccc(Oc4ccccc4)cc3)c3c(N)ncnc32)CC1 [Compound 9]
pIC50 (YES): 9.10 | pIC50 (BLK): 9.70 | pIC50 (Lyn): 8.92 | pIC50 (Brk): 8.48 | pIC50 (FGR): 9.40 | pIC50 (HER2): 5.81 | pIC50 (C-src): 7.84 | pIC50 (Fyn): 8.15 | pIC50 (ABL): 7.49 | paw inflammation [4]: reduced the increase in paw inflammation | pIC50 (HER4): 8.49 | pIC50 (TEC): 6.97 | GI50 (lymphoma cell line DOHH2; 72 hours): 0.011 µM | pIC50 (CSK): 8.62 | pIC50 (FER): 5.48 | pIC50 (SYK): < 5.00

Nc1ncnc2c1c(-c1ccc(Oc3ccccc3)cc1)nn2[C@@H]1CCCCN1C(=O)/C=C/c1c[nH]cn1 [Compound 4]
inhibition of pERK under BCR cross-linking [5]: overcomes inhibition of pERK | time to reduced Egr-1 expression (Egr-1): ≤ 1 h | maximal downregulation of Egr-1 expression (Egr-1; achieved by 4 hr): 10 fold | pIC50 [6]: > 8.00 | pIC50 (BTK): 7.65
